This is an account of results in patent publication US20220133842A1 (priority 2019, published 2022).

Series [1] has as its system Caco-2 cells.
For series [2], the system named is T84 cells.
In series [3] the test system is IPEC-J2 cells.
The test system of series [4] is human or porcine epithelial cells.

Where two headings read alike, the source gives them in different places.

Take `CO/C1=C\C(C)=C\[C@@H](C)[C@@H](O)[C@@H](C)C/C(C)=C/C=C/[C@H](OC)[C@@H]([C@@H](C)[C@@H](O)[C@H](C)[C@@]2(O)C[C@@H](O)[C@H](C)[C@@H](C(C)C)O2)OC1=O` [Bafilomycin A1]: in series [1], the Apical fraction is listed as 0.1%, the Basal fraction is recorded as 22.5% and the Intracellular fraction is given as 77.4%. In series [2], this molecule came in with an Apical fraction of 2.5%, a Basal fraction of 30.5% and an Intracellular fraction of 68.0%. In series [3], this molecule had an Apical fraction of 0.1%, a Basal fraction of 28.1% and an Intracellular fraction of 71.8%. The intracellular accumulation in series [4] was 19.5-77.4 % of the initial dose.

For the molecule `Cc1ncc([N+](=O)[O-])n1CCO` [Metronidazole], in series [1] (human), the Apical fraction is listed as 80.2%, the Basal fraction turned out to be 12.9% and the Intracellular fraction was determined as 12.7%. In series [2] (human), this molecule yielded an Apical fraction of 71.3%, a Basal fraction of 9.7% and an Intracellular fraction of 19.0%. Moreover, in series [3] (pig), the Apical fraction is on record as 84.0%, the Basal fraction was 7.1% and the Intracellular fraction came out at 8.9%.
